This assay has as its system T1, lipase from Bacillus cereus ATA179.
T1 construct: gene extracellular lipase; 47 kDa by SDS-PAGE
In words: lipase activity at varied tributyrin, Lineweaver-Burk plot. It counts as biochemical. Conditions: tributyrin 0.1-1.2 mM; partially purified enzyme; pH and temperature of the kinetic assay not given.

Structures are written as SMILES.

For the compound `CCCC(=O)OCC(COC(=O)CCC)OC(=O)CCC` [tributyrin], the Km was determined as 110 µM.

(Values after publication PMC8313942, “Lipase from new isolate Bacillus cereus ATA179: optimization of production conditions, partial purification, characterization and its potential in the detergent industry” (Turkish Journal of Biology, 2021).)
